Reference: patent US20090258836A1, “EFFECTIVE DELIVERY OF CROSS-SPECIES A3 ADENOSINE-RECEPTOR ANTAGONISTS TO REDUCE INTRAOCULAR PRESSURE” (The Trustees of The University of Pennsylvania, priority 2006, published 2009)
“Also recorded” adds a separate entry of the source.

Columns and labels:
[1] = test system: HCE (human ciliary epithelial) cell line, NPE cells; assay: Cell volume in isosmotic solution (isosmotic shrinkage), Coulter Counter; assay type: cell-based
How it was run: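 Immortalized human NPE (HCE) cells, 8-13 days post-passage at confluence, suspended in isosmotic solution with test agents or matched vehicle. Volume measured by Coulter Counter as peak of distribution, normalized to first time point; shrinkage fit to monoexponential by nonlinear least squares for steady-state volume and time constant.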

mouse IOP = assay: Mouse IOP after topical application, invasive servo-null micropipette system (SNMS); assay type: in vivo, Black Swiss mice; settings: after topical application
How it was run: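 Black Swiss outbred mice, 7-9 weeks, under i.p. ketamine plus topical proparacaine. Drugs applied topically as droplets with <2% DMSO (none for hydrophilic compounds) and 0.0005% benzalkonium chloride, 295-300 mOsm. IOP measured invasively by servo-null micropipette 10 min after a single application.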

CCOC(=O)C1=C(C)NC(c2ccccc2)=C(C(=O)OCc2ccccc2)C1C#Cc1ccccc1 (racemic) [MRS-1191, 3-ethyl 5-benzyl-2-methyl-6-phenyl-4-phenylethynyl-1,4-(±)-dihydropyridine-3,5-dicarboxylate]
effect of A3 antagonist on IB-MECA-triggered isosmotic shrinkage of NPE cells ([1]; 100 nM IB-MECA, 2 min preincubation with 300 nM MRS-1097 or 100 nM MRS-1191): prevented characteristic shrinkage; also recorded: prevented the shrinkage | effect on cell volume in the absence of IB-MECA ([1]; 100 nM MRS-1191): did not affect cell volume | effect of A3 antagonist on isosmotic shrinkage triggered by CGS-21680 ([1]; 3 μM CGS-21680, preincubation with 100 nM MRS-1191): abolished this effect; also recorded: blocked; also recorded: prevented the shrinkage | effect of A3 antagonist on adenosine-stimulated isotonic shrinkage of NPE cells ([1]; 10 μM adenosine, 2 min preincubation with 300 nM MRS-1097, 100 nM MRS-1191 or 100 nM MRS-1523): prevented the characteristic shrinkage; also recorded: blocked the shrinkage | time to begin to lower IOP, invasive servo-null technique (mouse IOP): within about a minute
